For assay [1], the system named is A549. In words: Growth inhibition of human A549 cells after 4 days by SRB assay. It counts as functional. To be noted: A549, 96 h. In general terms: The SRB assay estimates cell density from bound dye.
In assay [2] the test system is PC-3. Put plainly: Growth inhibition of human PC3 cells after 4 days by SRB assay. The conditions noted are these: PC-3, 96 h. It counts as functional.

SMILES strings stand for the structures.

GI50 data for 4 compounds are collected here from ChEMBL document CHEMBL4033765, “Synthesis and Evaluation of a Linkable Functional Group-Equipped Analogue of the Epothilones” (2017).

For orientation: GI50 means the concentration at which growth is held to half of that of the control. The low end stands for more potent growth inhibition, the high end for less potent growth inhibition. Consider `CC(=O)NCCCC[C@H]1C(=O)C(C)(C)[C@@H](O)CC(=O)O[C@H](/C(C)=C/c2csc(C)n2)C[C@@H]2O[C@]2(C)CCC[C@H](C)[C@@H]1O`, for which the concentration for 50% growth inhibition (GI50) in assay [1] is 1 nM; in assay [2] it was 2 nM.

Take `CC(=O)O[C@H]1C(=O)[C@@]2(C)[C@H]([C@H](OC(=O)c3ccccc3)[C@]3(O)C[C@H](OC(=O)[C@H](O)[C@@H](NC(=O)c4ccccc4)c4ccccc4)C(C)=C1C3(C)C)[C@]1(OC(C)=O)CO[C@@H]1C[C@@H]2O` [PACLITAXEL]: the figures for the GI50 in assay [1] and in assay [2] were 3.7 nM and 5.8 nM, respectively.

Turning to `COCCOCCC(=O)NCCCC[C@H]1C(=O)C(C)(C)[C@@H](O)CC(=O)O[C@H](/C(C)=C/c2csc(C)n2)C[C@@H]2O[C@]2(C)CCC[C@H](C)[C@@H]1O`, the GI50 in assay [1] turned out to be 0.9 nM; in assay [2] it was 1.9 nM.

Turning to `C/C(=C\c1csc(C)n1)[C@@H]1C[C@@H]2O[C@]2(C)CCC[C@H](C)[C@H](O)[C@@H](C)C(=O)C(C)(C)[C@@H](O)CC(=O)O1` [PATUPILONE], the figures for the GI50 in assay [1] and in assay [2] were 0.7 nM and 1.7 nM, respectively.
